Values of other authors as cited in patent US20230285429A1, “CANNABINOID ACID FORMULATIONS, DELIVERY SYSTEMS, AND METHODS OF USE” (Flora Growth U.S. Holdings Corp., priority 2022, published 2023).

Columns and labels:
[1] = fatty acids, intestinal lymph
[2] = biological target: spike protein of SARS-CoV-2 (Severe acute respiratory syndrome coronavirus 2, UniProt P0DTC2)

| Compound | percentage transported to the lymph system [1] [%] | affinity for the spike protein [2] |
| --- | --- | --- |
| CCCCCCCCCC(=O)O [decanoic] | 13 |  |
| CCCCCCCCCCCC(=O)O [lauric] | 28 |  |
| CCCCCc1cc(O)c(C/C=C(\C)CCC=C(C)C)c(O)c1C(=O)O [CBGA, cannabigerolic acid] |  | high affinity |
| CCCCC/C=C\C/C=C\CCCCCCCC(=O)O [linoleic] | 32 |  |
| C=C(C)[C@@H]1CCC(C)=C[C@H]1c1c(O)cc(CCCCC)c(C(=O)O)c1O [CBDA, cannabidiolic acid] |  | high affinity |
